In patent US20230398178A1, “METHODS AND COMPOSITIONS FOR TREATING OR PREVENTING A VAGINAL INFECTION OF GARDNERELLA VAGINALIS” (Massachusetts Institute of Technology, priority 2022, published 2023):
“Also recorded” adds a separate entry of the source.

Tests used:
G. vaginalis 14018 [1] = experiment: Biofilm formation of G. vaginalis 14018 in polystyrene plates (CFU assay); type: cell-based, Gardnerella vaginalis; settings: for effect on (proportional) biofilm formation, in words: G. vaginalis 14018, 24 hour biofilms, NYCIII media; for reduction of biofilm formation: G. vaginalis 14018, NYCIII media, anaerobic, 24 h, 0.2 wt %
G. vaginalis 14018 [2] = experiment: Total growth of G. vaginalis 14018 (CFU assay); type: cell-based, Gardnerella vaginalis; settings: for effect on total growth, in words: G. vaginalis 14018, NYCIII media (contains 1% glucose), soluble additive; for effect on growth in media without glucose, in words: G. vaginalis 14018, NYCIII media without glucose (data not shown); for suppression of growth: G. vaginalis 14018, glucose-rich NYCIII media, 0.2 wt % soluble monosaccharide
[3] = test system: Gardnerella vaginalis ATCC 14018 mature biofilms; experiment: Disruption of established G. vaginalis biofilms (CFU of biofilm and supernatant fractions); type: cell-based; settings: for viable cell counts in supernatant / biofilm fractions, in words: pre-established 24 h biofilms, 24 h treatment
Experimental: Gardnerella vaginalis 14018 ATCC strain was obtained from ATCC. Salivary MUC5B mucin was isolated and purified as described previously. Galactose and D-Fucose were obtained from Sigma-Aldrich. AnaeroPacks were purchased from VWR. Prior to the experiment, MUC5B mucin was weighed out and solubilized to desired concentration on a shaker overnight. To establish mature biofilms, an overnight preculture of Gardnerella vaginalis ATCC 14018 was diluted 1:20 into fresh NYC III medium with 1% glucose and incubated at 37° C. in the anaerobic chamber for 24 h. Before adding fresh solutions, a set of triplicate wells was sacrificed to quantify cell counts in supernatant and biofilm fraction at the 24 h timepoint. The spent supernatant was gently drained from the rest of the wells and fresh medium or mucin/monosaccharide solutions in medium were added on top of the bacterial biomass. Plate was gently rocked (100 rpm) for 24 h in the anaerobic atmosphere (generated with AnaeroPack, Mitsubishi in the airtight container) in the 37° C. incubator. After 24 h, the supernatant was removed into a separate plate and the biofilms were washed twice with […], sterile phosphate-buffer saline (PBS) and washes were combined with the supernatant (=supernatant fraction). Another […], of PBS was added to the biofilms, each well was vigorously scraped with P20 tip for 20 s and scraped biomass pipetted up and down to homogenize the solution (=biofilm fraction). Both supernatant and biofilm solutions were serially diluted, plated on BHI-agar (BHI=brain-heart infusion, 1.5% agar) and incubated in the anaerobic chamber 37° C. incubator. Colonies were counted after ˜48 h.

[4] = test system: Gardnerella vaginalis 49145; experiment: Biofilm formation of G. vaginalis 49145 (CFU assay); type: cell-based
[5] = test system: Gardnerella vaginalis mature biofilms; experiment: Minimum biofilm eradication assay with metronidazole; type: cell-based; settings: 0.2 wt % monosaccharide with metronidazole concentration series, established biofilms, 24 h
Experimental: Mature biofilms of Gardnerella vaginalis were established as described above. On a separate plate serial dilution of metronidazole alone or in combination with 0.2 wt % Gal/D-Fuc were prepared in NYC III 1% Glc medium. Negative controls (no metronidazole) were also included on the plate. After spent supernatant was drained from mature biofilms, 100 μL, of metronidazole/metronidazole-monosaccharide or negative controls solutions were added to the biofilms and plate was rocked (100 rpm) for 24 h in the anaerobic atmosphere (generated with AnaeroPack, Mitsubishi in the airtight container) in the 37° C. incubator. After 24 h incubation, the CFUs of supernatant and biofilm fractions were quantified as described in the biofilm disruption experiment.

[6] = test system: Gardnerella vaginalis 49145; experiment: Total growth of G. vaginalis 49145 (CFU assay); type: cell-based; settings: G. vaginalis 49145, glucose-rich media

Compound | effect on (proportional) biofilm formation, in words (G. vaginalis 14018 [1]) | effect on total growth, in words (G. vaginalis 14018 [2]) | viable cell counts in supernatant / biofilm fractions, in words [3] | reduction of biofilm formation (G. vaginalis 14018 [1]) [%] | effect on biofilm formation, in words [4] | also measured
C[C@H](O)[C@@H](O)[C@@H](O)[C@H](O)C=O [L-Fuc, L-fucose, reference compound] | only galactose was able to reduce proportional biofilm formation |  |  |  |  | 
MUC5B: mucin glycoprotein, predominant in cervicovaginal fluid, purified from pooled human saliva and reconstituted into gels | limited its biofilm formation, toxin production, and killing of endocervical cells; also recorded: reduces relative biofilm formation | did not limit the growth of the bacteria; also recorded: did not have any detrimental impact | increase in the cell counts in the supernatant | 76 | reduction of biofilm formation | disruption of established biofilms, in words ([3]; pre-established biofilms): disrupt established biofilms; effect on (proportional) biofilm formation, in words (G. vaginalis 14018 [1]; listed as mucin): inhibit biofilm formation
CC(=O)N[C@H]1[C@H]([C@H](O)[C@H](O)CO)OC(O)(C(=O)O)C[C@@H]1O (stereo partly drawn) [NeuNAc, N-acetyl D-neuraminic acid, reference compound] | only galactose was able to reduce proportional biofilm formation |  |  |  |  | 
CC(=O)N[C@H]1C(O)O[C@H](CO)[C@H](O)[C@@H]1O (stereo partly drawn) [GalNAc, N-acetyl D-galactosamine, reference compound] | only galactose was able to reduce proportional biofilm formation | have no effect |  |  |  | 
O=C[C@H](O)[C@@H](O)[C@@H](O)[C@H](O)CO [galactose, D-galactose] | inhibit biofilm formation; also recorded: significantly reduced proportional biofilm formation | limited G. vaginalis growth in glucose-rich media; also recorded: reduced the overall growth | reduction in viable cells in both biofilm and supernatant fractions | 85 | reduction of biofilm formation | effect on growth in media without glucose, in words (G. vaginalis 14018 [2]): did not diminish; suppression of growth (G. vaginalis 14018 [2]): 90%; effect in combination with metronidazole on biofilm eradication, in words [5]: potentiate the action of antibiotic metronidazole; effect in combination with metronidazole on biofilm eradication, in words ([5]; listed as Gal): synergistic effect
C[C@@H](O)[C@H](O)[C@H](O)[C@@H](O)C=O [D-fucose, 6-deoxy-D-galactose] | inhibit biofilm formation | limited G. vaginalis growth in glucose-rich media; also recorded: reduced the overall growth | reduction in viable cells in both biofilm and supernatant fractions | 72 | reduction of biofilm formation | effect on total growth, in words [6]: suppressed the growth; effect on growth in media without glucose, in words (G. vaginalis 14018 [2]): did not diminish; suppression of growth (G. vaginalis 14018 [2]): 75%; effect in combination with metronidazole on biofilm eradication, in words ([5]; listed as D-Fuc): synergistic effect; effect in combination with metronidazole on biofilm eradication, in words ([5]; listed as D-Fucose): potentiate the action of antibiotic metronidazole; effect on (proportional) biofilm formation, in words (G. vaginalis 14018 [1]; listed as D-Fuc): significantly reduced proportional biofilm formation
CC(=O)N[C@H]1C(O)O[C@H](CO)[C@@H](O)[C@@H]1O (stereo partly drawn) [GlcNAc, N-acetyl D-glucosamine, reference compound] | only galactose was able to reduce proportional biofilm formation | have no effect |  |  |  | 
